Molecular target: T1, purified human HDAC6 (Homo sapiens, UniProt Q9UBN7)
T1 construct: purchased BPS Bioscience 5006
T1 sequence (Q9UBN7 1-1215): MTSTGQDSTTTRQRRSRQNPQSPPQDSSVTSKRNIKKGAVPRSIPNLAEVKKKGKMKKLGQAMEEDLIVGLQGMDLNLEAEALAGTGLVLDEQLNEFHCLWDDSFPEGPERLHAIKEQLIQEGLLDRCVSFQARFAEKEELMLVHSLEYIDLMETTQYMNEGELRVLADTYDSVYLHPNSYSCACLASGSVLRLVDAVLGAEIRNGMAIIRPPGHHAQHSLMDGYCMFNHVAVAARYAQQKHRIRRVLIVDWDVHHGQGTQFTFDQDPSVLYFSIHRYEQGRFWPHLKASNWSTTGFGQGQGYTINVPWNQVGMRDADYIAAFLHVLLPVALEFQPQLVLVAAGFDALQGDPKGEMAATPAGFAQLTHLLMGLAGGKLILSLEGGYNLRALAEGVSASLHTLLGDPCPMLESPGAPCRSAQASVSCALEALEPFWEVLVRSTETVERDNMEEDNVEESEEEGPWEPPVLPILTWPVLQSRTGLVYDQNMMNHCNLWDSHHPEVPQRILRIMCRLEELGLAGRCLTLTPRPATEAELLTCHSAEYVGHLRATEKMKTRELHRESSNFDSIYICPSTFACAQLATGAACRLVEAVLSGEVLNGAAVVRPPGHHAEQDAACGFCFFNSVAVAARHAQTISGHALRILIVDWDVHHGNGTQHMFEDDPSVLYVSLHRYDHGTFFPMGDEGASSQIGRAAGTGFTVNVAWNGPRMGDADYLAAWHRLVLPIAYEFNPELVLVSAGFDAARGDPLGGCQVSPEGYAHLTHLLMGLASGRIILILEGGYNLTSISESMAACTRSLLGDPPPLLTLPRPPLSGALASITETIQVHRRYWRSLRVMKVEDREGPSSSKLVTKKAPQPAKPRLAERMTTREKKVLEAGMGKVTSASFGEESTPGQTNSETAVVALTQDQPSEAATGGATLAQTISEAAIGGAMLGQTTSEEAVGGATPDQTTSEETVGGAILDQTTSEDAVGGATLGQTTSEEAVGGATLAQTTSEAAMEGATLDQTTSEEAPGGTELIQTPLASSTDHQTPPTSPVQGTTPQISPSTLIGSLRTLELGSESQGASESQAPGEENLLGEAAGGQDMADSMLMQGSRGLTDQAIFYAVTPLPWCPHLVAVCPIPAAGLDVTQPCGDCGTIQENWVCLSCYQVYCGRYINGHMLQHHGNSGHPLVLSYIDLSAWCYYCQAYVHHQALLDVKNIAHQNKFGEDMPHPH
Experiment: HDAC6 Enzyme Assay
Format: biochemical
Details: compound concentration 0.37 μM, read-out: Percent Inhibition
Outline: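 Readout is AMC fluorescence (Ex 340 nm, Em 460 nm) after trypsin cleavage of the deacetylated Ac-Arg-Gly-Lys(Ac)-AMC product. Reaction: purified human HDAC6, compound or vehicle, 1 hour, 30° C, quenched by trichostatin A. Single-concentration percent inhibition or IC50 calculated versus DMSO-treated samples.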

SMILES | inhibition at 0.37 µM [%]
O=C(NO)c1ccc2ncn(CCc3cccc(-c4cccc(C(=O)NC5CC5)c4)c3)c(=O)c2c1 [Compound I-291, 3-(2-{3′-[(cyclopropylamino)carbonyl]biphenyl-3-yl}ethyl)-N-hydroxy-4-oxo-3,4-dihydroquinazoline-6-carboxamide] | 89.6
O=C(NO)c1ccc2c(Br)cn(Cc3ccccc3)c(=O)c2c1 [Compound I-292, 2-benzyl-4-bromo-N-hydroxy-1-oxo-1,2-dihydroisoquinoline-7-carboxamide] | 82.8
O=C(NO)c1ccc2ccn(CCC(c3ccc(Cl)cc3)c3ccc(Cl)cc3)c(=O)c2c1 [Compound I-293, 2-[3,3-bis(4-chlorophenyl)propyl]-N-hydroxy-1-oxo-1,2-dihydroisoquinoline-7-carboxamide] | 91.5
CC(C)NCCn1cnc2ccc(C(=O)NO)cc2c1=O [Compound I-294, N-hydroxy-3-[2-(isopropylamino)ethyl]-4-oxo-3,4-dihydroquinazoline-6-carboxamide] | 56
O=C(NO)c1ccc2ncn(CCc3cccc(-c4ccc(C(F)(F)F)cc4)c3)c(=O)c2c1 [Compound I-295, N-hydroxy-4-oxo-3-{2-[4′-(trifluoromethyl)biphenyl-3-yl]ethyl}-3,4-dihydroquinazoline-6-carboxamide] | 72.5
Cc1ccccc1-c1cccc(CCn2cnc3ccc(C(=O)NO)cc3c2=O)c1 [Compound I-296, N-hydroxy-3-[2-(2′-methylbiphenyl-3-yl)ethyl]-4-oxo-3,4-dihydroquinazoline-6-carboxamide] | 94.2
CC(C)c1ccc(-c2cccc(CCn3cnc4ccc(C(=O)NO)cc4c3=O)c2)cc1 [Compound I-297, N-hydroxy-3-[2-(4′-isopropylbiphenyl-3-yl)ethyl]-4-oxo-3,4-dihydroquinazoline-6-carboxamide] | 61.5
O=C(NO)c1ccc2ccn(-c3ccccc3Cl)c(=O)c2c1 [Compound I-298, 2-(2-chlorophenyl)-N-hydroxy-1-oxo-1,2-dihydroisoquinoline-7-carboxamide] | 94.6
O=C(NO)c1ccc2ncn(CCc3cccc(-c4ccc(S(=O)(=O)N5CCCCC5)cc4)c3)c(=O)c2c1 [Compound I-299, N-hydroxy-4-oxo-3-{2-[4′-(piperidin-1-ylsulfonyl)biphenyl-3-yl]ethyl}-3,4-dihydroquinazoline-6-carboxamide] | 90.6
O=C(NO)c1ccc2ncn(CCc3cccc(-c4ccc(F)cc4)c3)c(=O)c2c1 [Compound I-300, 3-[2-(4′-fluorobiphenyl-3-yl)ethyl]-N-hydroxy-4-oxo-3,4-dihydroquinazoline-6-carboxamide] | 91.7
Cc1ccc(-c2cccc(CCn3cnc4ccc(C(=O)NO)cc4c3=O)c2)cc1 [Compound I-301, N-hydroxy-3-[2-(4′-methylbiphenyl-3-yl)ethyl]-4-oxo-3,4-dihydroquinazoline-6-carboxamide] | 88.1
O=C(NO)c1ccc2ncn(CCc3cccc(-c4cc5ccccc5s4)c3)c(=O)c2c1 [Compound I-302, 3-{2-[3-(1-benzothien-2-yl)phenyl]ethyl}-N-hydroxy-4-oxo-3,4-dihydroquinazoline-6-carboxamide] | 83.5
COc1ccc(-c2cccc(CCn3cnc4ccc(C(=O)NO)cc4c3=O)c2)cc1 [Compound I-303, N-hydroxy-3-[2-(4′-methoxybiphenyl-3-yl)ethyl]-4-oxo-3,4-dihydroquinazoline-6-carboxamide] | 93.3
Cc1cccc(-c2cccc(CCn3cnc4ccc(C(=O)NO)cc4c3=O)c2)c1 [Compound I-304, N-hydroxy-3-[2-(3′-methylbiphenyl-3-yl)ethyl]-4-oxo-3,4-dihydroquinazoline-6-carboxamide] | 90.9
O=C(NO)c1ccc2ccn(Cc3ccc(-n4cccc4)cc3)c(=O)c2c1 [Compound I-305, N-hydroxy-1-oxo-2-[4-(1H-pyrrol-1-yl)benzyl]-1,2-dihydroisoquinoline-7-carboxamide] | 99
O=C(NO)c1ccc2ccn(Cc3cccc(-n4cc5ccccc5n4)c3)c(=O)c2c1 [Compound I-308, N-hydroxy-2-[3-(2H-indazol-2-yl)benzyl]-1-oxo-1,2-dihydroisoquinoline-7-carboxamide] | 97.9
CN(C)S(=O)(=O)c1cccc(-c2cccc(CCn3cnc4ccc(C(=O)NO)cc4c3=O)c2)c1 [Compound I-309, 3-(2-{3′-[(dimethylamino)sulfonyl]biphenyl-3-yl}ethyl)-N-hydroxy-4-oxo-3,4-dihydroquinazoline-6-carboxamide] | 83.8
O=C(NO)c1ccc2ccn(-c3ccccn3)c(=O)c2c1 [Compound I-310, N-hydroxy-1-oxo-2-pyridin-2-yl-1,2-dihydroisoquinoline-7-carboxamide] | 90.3
O=C(NO)c1ccc2ncn(CCc3cccc(-c4cccc(C(F)(F)F)c4)c3)c(=O)c2c1 [Compound I-311, N-hydroxy-4-oxo-3-{2-[3′-(trifluoromethyl)biphenyl-3-yl]ethyl}-3,4-dihydroquinazoline-6-carboxamide] | 91.6
O=C(NO)c1ccc2ncn(CCc3cccc(-c4cccc(OC(F)(F)F)c4)c3)c(=O)c2c1 [Compound I-312, N-hydroxy-4-oxo-3-{2-[3′-(trifluoromethoxy)biphenyl-3-yl]ethyl}-3,4-dihydroquinazoline-6-carboxamide] | 76.2
O=C(NO)c1ccc2ncn(CCc3cccc(-c4c(Cl)cccc4Cl)c3)c(=O)c2c1 [Compound I-313, 3-[2-(2′,6′-dichlorobiphenyl-3-yl)ethyl]-N-hydroxy-4-oxo-3,4-dihydroquinazoline-6-carboxamide] | 73.2
O=C(NO)c1ccc2ncn(CCc3cccc(-c4ccccc4Cl)c3)c(=O)c2c1 [Compound I-314, 3-[2-(2′-chlorobiphenyl-3-yl)ethyl]-N-hydroxy-4-oxo-3,4-dihydroquinazoline-6-carboxamide] | 93.5
CCN1CCC(CCn2ccc3ccc(C(=O)NO)cc3c2=O)CC1 [Compound I-315, 2-[2-(1-ethylpiperidin-4-yl)ethyl]-N-hydroxy-1-oxo-1,2-dihydroisoquinoline-7-carboxamide] | 90.1
O=C(NO)c1ccc2ncn(CCc3cccc(-c4cccc(Cl)c4)c3)c(=O)c2c1 [Compound I-316, 3-[2-(3′-chlorobiphenyl-3-yl)ethyl]-N-hydroxy-4-oxo-3,4-dihydroquinazoline-6-carboxamide] | 87.7
CC(C)(C)OC(=O)N1CCC(c2cccc(CCn3ccc4ccc(C(=O)NO)cc4c3=O)c2)CC1 [Compound I-317, tert-butyl 4-(3-{2-[7-[(hydroxyamino)carbonyl]-1-oxoisoquinolin-2(1H)-yl]ethyl}phenyl)piperidine-1-carboxylate] | 93.2
O=C(NO)c1ccc2ncn(CCc3cccc(-c4csc5ccccc45)c3)c(=O)c2c1 [Compound I-318, 3-{2-[3-(1-benzothien-3-yl)phenyl]ethyl}-N-hydroxy-4-oxo-3,4-dihydroquinazoline-6-carboxamide] | 86.4
Cn1cc(-c2cccc(Cn3ccc4ccc(C(=O)NO)cc4c3=O)c2)cn1 [Compound I-319, N-hydroxy-2-[3-(1-methyl-1H-pyrazol-4-yl)benzyl]-1-oxo-1,2-dihydroisoquinoline-7-carboxamide] | 98.6
COc1ncccc1-c1cccc(CCn2cnc3ccc(C(=O)NO)cc3c2=O)c1 [Compound I-320, N-hydroxy-3-{2-[3-(2-methoxypyridin-3-yl)phenyl]ethyl}-4-oxo-3,4-dihydroquinazoline-6-carboxamide] | 90.4

Same assay, conditions: compound concentration 0.412 μM, read-out: Percent Inhibition

SMILES | inhibition at 0.412 µM [%]
O=C(NO)c1ccc2ccn(Cc3ccc(-n4cccn4)cc3)c(=O)c2c1 [Compound I-289, N-hydroxy-1-oxo-2-[4-(1H-pyrazol-1-yl)benzyl]-1,2-dihydroisoquinoline-7-carboxamide] | 96.7
O=C(NO)c1ccc2ccn(Cc3ccc4nonc4c3)c(=O)c2c1 [Compound I-290, 2-(2,1,3-benzoxadiazol-5-ylmethyl)-N-hydroxy-1-oxo-1,2-dihydroisoquinoline-7-carboxamide] | 98.5

Source: patent US8765773B2, “Substituted hydroxamic acids and uses thereof” (Millennium Pharmaceuticals, Inc., priority 2010, dated 2014)
